Test results: patent US9055743B2, “Alpha, beta-unsaturated imines” (BAYER INTELLECTUAL PROPERTY GMBH, priority 2010, dated 2015)

Columns and labels:
Type in all cases: in vivo
[1] = test system: cat fleas (Ctenocephalides felis, fully sensitive laboratory strain); experiment: Contact test against fleas in-vitro (CTECFE contact); details: for activity against cat fleas: 500 g/ha, after 48 h
Protocol: Contact Test Against Fleas In-Vitro (CTECFE Contact)
An amount of 0.9 mg of active compound is weighed out, and 1 ml of acetone is added.
Of this acetone solution, either […] are transferred directly into roll-necked test tubes or an aliquot is diluted with 4 parts of acetone 1:5. For its part, 250 μl of this dilution are pipetted into roll-necked test tubes, or the dilution is diluted further, etc., until the desired number of dilution steps is reached.
The roll-necked test tubes containing the solution of the active compound in acetone are immediately coated in a fume cupboard by 2 h of swing rotation at 30 rpm. After evaporation of the solvent, the active compound contained in the acetone gives, at the highest concentration tested, an active compound content of 500 g/ha (or 500 μg/dm^2) on the surface of the test tube.
10-20 Adult cat fleas (Ctenocephalides felis, fully sensitive laboratory strain) anesthetized with CO2 are transferred into the test tubes prepared in this manner, and the test tubes are closed with a plastic roll-necked lid provided with fine holes.
The test tubes are stored vertically at room temperature and humidity for 24 or 48 h. After 24 and 48 h, the activity of the active compound applied is determined by comparison with an acetone-treated control. Here, an observed normal activity for all fleas corresponds to 0% activity, a strongly restricted or uncoordinated (knock-down) movement or death of all fleas corresponds to 100% activity.

[2] = test system: larvae of the mustard beetle (Phaedon cochleariae); experiment: Phaedon test (PHAECO spray treatment)
Protocol: Phaedon Test ([…] Spray Treatment) Solvents: 78.0 parts by weight of acetone • • 1.5 parts by weight of dimethylformamide Emulsifier: 0.5 part by weight of alkylaryl polyglycol ether To produce a suitable preparation of active compound, 1 part by weight of active compound is mixed with the stated amounts of solvents and emulsifiers, and the concentrate is diluted with emulsifier-containing water to the desired concentration. Discs of Chinese cabbage leaves (Brassica pekinensis) are sprayed with an active compound preparation of the desired concentration and, after drying, populated with larvae of the mustard beetle (Phaedon cochleariae).

[3] = test system: caterpillars of the army worm (Spodoptera frugiperda); experiment: Spodoptera frugiperda test (SPODFR spray treatment)
Protocol: Spodoptera frugiperda Test (SPODFR Spray Treatment) Solvents: 78.0 parts by weight of acetone • • 1.5 parts by weight of dimethylformamide Emulsifier: 0.5 part by weight of alkylaryl polyglycol ether
(§1) To produce a suitable preparation of active compound, 1 part by weight of active compound is mixed with the stated amounts of solvents and emulsifier, and the concentrate is diluted with emulsifier-containing water to the desired concentration.
Discs of maize leaves (Zea mays) are sprayed with an active compound preparation of the desired concentration and, after drying, populated with caterpillars of the army worm (Spodoptera frugiperda) besetzt.
After 7 days, the activity in % is determined. 100% means that all caterpillars have been killed; 0% means that none of the caterpillars have been killed.

[4] = test system: green peach aphid (Myzus persicae); experiment: Myzus test (MYZUPE spray treatment)
Protocol: Myzus Test (MYZUPE Spray Treatment) Solvents: 78 parts by weight of acetone • • 1.5 parts by weight of dimethylformamide Emulsifier: 0.5 part by weight of alkylaryl polyglycol ether
as §1
Discs of Chinese cabbage leaves (Brassica pekinensis) which are infested by all stages of the green peach aphid (Myzus persicae) are sprayed with an active compound preparation of the desired concentration.
After 6 days, the activity in % is determined. 100% means that all aphids have been killed; 0% means that none of the aphids have been killed.

[5] = test system: greenhouse red spider mite (Tetranychus urticae); experiment: Tetranychus test; OP-resistant (TETRUR spray treatment)
Protocol: Tetranychus Test; OP-Resistant (TETRUR Spray Treatment) Solvents: 78.0 parts by weight of acetone • • 1.5 parts by weight of dimethylformamide Emulsifier: 0.5 part by weight of alkylaryl polyglycol ether
as §1
Discs of bean leaves (Phaseolus vulgaris) infested by all stages of the greenhouse red spider mite (Tetranychus urticae) are sprayed with an active compound preparation of the desired concentration.
After 6 days, the activity in % is determined. 100% means that all spider mites have been killed; 0% means that none of the spider mites have been killed.

[6] = test system: Anopheles gambiae (homocygus kdr); experiment: Anopheles test (ANPHGB surface treatment); details: for knock-down activity: 100 mg/m^2, two hours after contact, exposition 30 minutes
Protocol: Anopheles Test (ANPHGB Surface Treatment) Solvent: Acetone
To produce a suitable preparation of active compound, the active compound is dissolved in acetone (2 mg/ml). The active compound preparation is pipetted onto a glazed tile and, after drying, adult mosquitoes of the species Anopheles gambiae (homocygus kdr) are placed onto the treated tile. The exposition time is 30 minutes.
(§2) Two hours after contact to the treated surface, the knock-down proportion of the test animals in % is determined.
24 hours after contact to the treated surface, the mortality in % is determined. Here, 100% means that all mosquitoes have been killed; 0% means that none of the mosquitoes has been killed.

Aedes aegypti = experiment: Aedes test (AEDSAE surface treatment); details: for knock-down activity: 100 mg/m^2, two hours after contact, exposition 30 minutes
Protocol: Aedes Test (AEDSAE Surface Treatment)
To produce a suitable preparation of active compound, the active compound is dissolved in acetone (2 mg/ml). The active compound preparation is pipetted onto a glazed tile and, after drying, adult mosquitoes of the species Aedes aegypti are placed onto the treated tile. The exposition time is 30 minutes.
as §2
24 hours after contact to the treated surface, the mortality in % is determined Here, 100% means that all mosquitoes have been killed; 0% means that none of the mosquitoes has been killed.

Boophilus microplus = Boophilus microplus test (BOOPMI injection); details: 20 μg/animal, injection into the abdomen, after 7 days
Protocol: Boophilus microplus Test (BOOPMI Injection)
Solvent: Dimethyl Sulphoxide
To produce a suitable preparation of active compound, 10 mg of active compound are mixed with 0.5 ml of solvent and the concentrate is diluted with solvent to the desired concentration. The solution of active compound is injected into the abdomen (Boophilus microplus), and the animals are transferred into dishes and kept in a climatized room. The activity is assessed by […] of fertile eggs.
After 7 days, the effect in % is determined 100% means that none of the ticks has laid any fertile eggs.

Ctenocephalides felis = Ctenocephalides felis oral test (CTECFE); details: 100 ppm in citrated cattle blood, after two days
Protocol: Ctenocephalides Felis Oral Test (CTECFE)
Solvent: 1 Part by Weight of Dimethyl Sulphoxide
To produce a suitable preparation of active compound, 10 mg of active compound are mixed with 0.5 ml of dimethyl sulphoxide. Part of the concentrate is diluted with citrated cattle blood, and the desired concentration is prepared.
About 20 unfed adult fleas (Ctenocephalides felis) are placed into a chamber which is closed at the top and bottom with gauze. A metal cylinder whose bottom end is closed with parafilm is placed onto the chamber. The cylinder contains the blood/active compound preparation, which can be taken up by the fleas through the parafilm membrane. After two days, the kill in % is determined 100% means that all fleas have been killed; 0% means that none of the fleas have been killed.

[7] = active compound concentration 500 g/ha
[8] = active compound concentration 100 g/ha

SMILES	activity against cat fleas [1]	activity (beetle larvae killed) ([2]; 500 g/ha, spray, after 7 days)	activity (caterpillars killed) ([3]; 500 g/ha, spray, after 7 days)	activity (aphids killed) ([4]; 500 g/ha, spray, after 6 days)	activity (spider mites killed) ([5]; 500 g/ha, spray, after 6 days)	knock-down activity [6]	knock-down activity (Aedes aegypti)	further results
Cc1ccc(N=C2C(=CSc3ccc(F)cc3)C(C)(C)c3ccccc32)cc1 [Example 1-21]	100%	–	–	–	–	–	–	Kill rate in % after 2 days ([1]; active compound concentration 0.032 g/ha): 100%; Kill rate in % after 2 days ([1]; active compound concentration 0.16 g/ha): 100%; pest or weed control at 500 g/ha ([2]; Phaedon cochleariae, 168 h, 500 g/ha, spray, after 7 days, read-out: activity (beetle larvae killed)): 100%; Kill rate in % after 7 days [2, 7]: 100%; pest or weed control at 500 g/ha ([3]; Spodoptera frugiperda, 168 h, 500 g/ha, spray, after 7 days, read-out: activity (caterpillars killed)): 100%; Kill rate in % after 7 days [3, 8]: 83%; pest or weed control at 500 g/ha ([4]; Myzus persicae, 144 h, 500 g/ha, spray, after 6 days, read-out: activity (aphids killed)): 100%; Kill rate in % after 6 days [4, 8]: 100%; Kill rate in % after 6 days [4, 7]: 100%; pest or weed control at 500 g/ha ([5]; Tetranychus urticae, 144 h, 500 g/ha, spray, after 6 days, read-out: activity (spider mites killed)): 100%; Kill rate in % after 6 days [5, 8]: 100%; Kill rate in % after 6 days [5, 7]: 100%; mortality at 100 mg/m2 ([6]; Anopheles gambiae, read-out: activity (mortality in %)): 100%; Kill rate in % after 24 hours ([6]; active compound concentration 8 g/ha): 100%; mortality at 100 mg/m2 (Aedes aegypti; Aedes aegypti, read-out: activity (mortality in %)): 100%
CCc1ccc2c(c1)CCC(=CSc1ccc(F)cc1)C2=Nc1ccc(C)cc1 [Example 1-84]	100%	100%	100%	100%	100%	100%	100%	–
Cc1ccc(N=C2C(=CSc3ccc(F)cc3)C(C)c3cc(F)ccc32)cc1C (mixture of isomers) [Example 1-63]	100%	100%	100%	100%	100%	–	–	activity (100% = none of the ticks has laid any fertile eggs) (Boophilus microplus): 100%; activity (kill in %) (Ctenocephalides felis): 90%
Cc1ccc(N=C2C(=CSc3ccccc3)C(c3ccccc3)c3ccccc32)cc1 (mixture of isomers) [Example 1-20]	100%	100%	100%	100%	100%	–	–	activity (100% = none of the ticks has laid any fertile eggs) (Boophilus microplus): 100%
CCc1ccc(N=C2C(=CSc3ccc(F)cc3)CCc3ccccc32)cc1 [Example 1-39]	100%	100%	100%	100%	80%	100%	100%	–
Cc1ccc(N=C2C(=CSc3ccc(F)cc3)CCc3ccccc32)cc1C [Example 1-41]	–	100%	100%	90%	80%	100%	95%	–
COc1ccc2c(c1)CCC(=CSc1ccc(F)cc1)C2=Nc1ccc(C)cc1 [Example 1-17]	100%	100%	100%	100%	100%	95%	100%	–
Cc1ccc(N=C2C(=CSc3ccccc3)COc3ccccc32)cc1 [Example 1-7]	100%	100%	100%	100%	100%	100%	85%	–
COc1ccc2c(c1)C(C)C(=CSc1ccc(F)cc1)C2=Nc1ccc(C)cc1 (mixture of isomers) [Example 1-65]	–	100%	100%	100%	100%	100%	85%	–
Cc1ccc(N=C2C(=CSc3ccc(F)cc3)CCc3ccccc32)c(C)c1 [Example 1-43]	–	100%	100%	90%	80%	100%	100%	–
